Row | melting point | SMILES
1 | 150 to 152 °C | Fc1ccc2[nH]cc(CC3CCN(CCOc4ccc5c(c4)CCC5)CC3)c2c1
2 | 78.5 to 80.5 °C | FC(F)(F)c1cc(C(F)(F)F)n2nc(SCc3ccccc3)nc2n1
3 | 199 to 203 °C | CCN1C(=O)c2cccc3c(S(C)(=O)=O)ccc1c23
4 | 73 to 75 °C | CC1(C)CC(N)CC(C)(C)N1Cc1ccccc1
5 | 152 to 154 °C | Cn1c(CC(=O)O)ccc1C(=O)c1ccc(C(F)(F)F)cc1
6 | 189 °C | CC(=O)Nc1nc(C)c(S(=O)(=O)N(C)CCO)s1
7 | 138 to 139 °C | O=C(Nc1ccccc1Oc1cc(Cl)cc(Cl)c1)C1CCNCC1
8 | 80 °C | COC(=O)C(C)=Cc1cc(N)ccc1Cl
9 | 104 to 107 °C | CC(C(O)c1ccc(N)cc1)N1CCC(Cc2ccccc2)CC1 (single isomer, unassigned; (-))
10 | 120 to 121 °C | N#Cc1cc(Cl)nc(SCc2ccc3ccccc3c2)n1
11 | 178 °C | Sc1nnc(-c2ccc(Cl)cc2)s1
12 | 182 °C | CC(SC1COC(c2ccc(C(=O)Nc3ccc(C#N)c(C#N)c3)cc2)OC1)C(O)(Cn1cncn1)c1ccc(F)cc1F (configuration not stated)
13 | 201 to 202 °C | O=C1NC(C(Cl)(Cl)Cl)Nc2ccccc21 (configuration not stated)
14 | 175 to 177 °C | NC1=NS(=O)N=C1NCCCCN(Cc1ccc(Cl)cc1)c1ccccn1 (configuration not stated)
15 | 160 to 162 °C | CCOC(=O)c1ccc2c(c1)sc1cc(N(C)C)ccc12
16 | 153 to 154 °C | CCCCOC(=O)Nc1ccc2cnn(Cc3ccc(C(=O)NS(=O)(=O)c4ccccc4)cc3OC)c2c1
17 | 172 to 173 °C | O=C(NC1CCCCC1O)c1ccccc1 (configuration not stated)
18 | 230 to 233 °C | O=C1NC(=O)C2(CCCc3ncc(Cl)cc32)N1 (configuration not stated)
19 | 49 to 54 °C | CCCCn1nc(C)c(C(=O)OC)c1Cc1ccc(-c2ccccc2S(N)(=O)=O)cc1
20 | 84 °C | CN(CC(=O)OC(C)(C)C)S(=O)(=O)c1ccc2c(Cl)cnc(NC(=N)N)c2c1
21 | 229 to 231 °C | CC1Sc2c(C(=O)O)c(=O)c3cc(F)c(N4CCSCC4)cc3n21 (configuration not stated)
22 | 219 to 221 °C | CNc1cc(N2CCN(C(=O)N3CCN(S(=O)(=O)c4ccc(Br)cc4)CC3)CC2)ncn1
23 | 143 to 144 °C | CC(=O)c1cc2c(s1)Oc1ccccc1N=C2N1CCN(C)CC1
24 | 194 to 196 °C | NC(=NC(=O)c1nc(Cl)c(N)nc1N)NCCCCCCCCCCCC(=O)O
25 | 116 to 117 °C | CCCCCC/C=C/CCCCCCCCCC(=O)Nc1nc(CC(=O)O)cs1

Row | melting point | SMILES
26 | 181 to 184 °C | O=C(O)C1=Cc2cc(Cl)ccc2OC1C(F)(F)F (configuration not stated)
27 | 138 to 140 °C | O=C1CC2CCSc3ccccc3C2=NN1c1ccccc1 (configuration not stated)
28 | 150 to 157 °C | COC(=O)c1ncccc1C(=O)c1ccc(-n2ccnc2)cc1
29 | 77.5 to 79 °C | Fc1ccc2c(c1)Oc1ccccc1S2
30 | 109 to 111 °C | CC1CC2C3CCC4CC(O)CCC4(C)C3C(O)CC2(C)C1C1(C)OCCO1 (configuration not stated)
31 | 135 to 138 °C | COC(=O)COc1cc2c(c3c1cc(C)n3Cc1ccccc1)CCC2
32 | 144 to 145 °C | CNc1nc(C(C)c2ccc(-c3ccccc3)c(F)c2)cs1 (configuration not stated)
33 | 171 to 172 °C | CCCOCCOc1ccc(-c2ccc3c(c2)C=C(C(=O)Nc2ccc(CN(C)C4CCOCC4)cc2)CCS3(=O)=O)cc1OCC
34 | 91 to 93 °C | CCOC(=O)COc1c(C(C)C)cc(C(O)(C(F)(F)F)C(F)(F)F)cc1C(C)C
35 | 152 to 154 °C | COc1ccc(CCN2CCC(NC(C)=O)CC2)cc1OC
36 | 104 to 105 °C | COc1ccc(C2=NN(CCCCCCNC(=O)c3ccccc3C(N)=O)C(=O)[C@H]3CC=CC[C@@H]23)cc1OC (relative stereo)
37 | 160 to 161 °C | CCCCCCCCCCS(=O)(=O)Nc1cc(C(=O)Nc2ccccc2)ccc1OC
38 | 169 to 171 °C | Cc1ccc(-c2cccc(/C=C/C(=O)Nc3ccc(Cc4ccccn4)cc3)c2)cc1
39 | 65 to 67 °C | CCSc1ccc(OC(C)c2ccnc3ncnn23)cc1 (configuration not stated)
40 | 54 to 55 °C | CCCCS(=O)c1ccc(C#N)nc1 (configuration not stated)
41 | 178 to 181 °C | COC(=O)c1cc(N)c(Cl)c(S(=O)(=O)n2cccc2)c1
42 | 196 to 197 °C | CCCn1c(COC)nc2c(N)nc3ccc(OCCCN4CCN(c5ccccn5)CC4)cc3c21
43 | 114 to 117 °C | CC(=O)NC(C)c1cc(S(N)(=O)=O)sc1S(C)(=O)=O (configuration not stated)
44 | 124 to 126 °C | CCCCCCCCOc1ccc(C(=O)c2ccccc2)c(O)c1Cc1cc(C)cc(-n2nc3ccccc3n2)c1O
45 | 110 to 112 °C | CC(=O)C(=[N+]=[N-])C(=O)CCc1ccc(S(N)(=O)=O)cc1
46 | 119 to 121 °C | COCCSNS(=O)(=O)c1ccccc1
47 | 167 to 169 °C | COCC(=O)NNC(=O)N1Cc2ccccc2Oc2ccc(Cl)cc21
48 | 200 °C | COc1ccc(C2CSc3ccccc3NC2=O)cc1Br (configuration not stated)
49 | 214 to 216 °C | N#Cc1ccc(CN2CCCNC2=C[N+](=O)[O-])cn1
50 | 103 to 105 °C | COc1ccc(C(=O)Oc2ccccc2)nc1C

Row | melting point | SMILES
51 | 192 °C | O=C(NC(Cc1ccccc1)C(=O)O)OCc1cc2cc(-c3cncnc3)ccc2o1 (configuration not stated)
52 | 213 °C | Cc1cccc(N2CCN(CCc3ccc(N4CCCNC4=O)cc3)CC2)c1
53 | 105 to 109 °C | CCOc1ccc(C(F)(F)F)cc1-c1cccn2nc(Nc3ccc4c(c3)CCN(CCS(C)(=O)=O)CC4)nc12
54 | > 330 °C | O=C(O)c1ccc(-c2ccnnc2)cc1
55 | 192 to 195 °C | COC(=O)c1cc(N)nc(-c2ccc(Cl)c(F)c2F)n1
56 | 94 to 96 °C | COc1ccc(CC(=O)O)cc1C(C)C
57 | 127 to 128 °C | O=[N+]([O-])c1ccc(OS(=O)(=O)c2cccnc2Cl)cc1
58 | 122 to 123 °C | Nc1cc(-n2ccnc2)c(F)cc1[N+](=O)[O-]
59 | 183 to 185 °C | Nc1ncnc2c1ncn2[C@H]1CO[C@@H](CO)C1
60 | 226 to 227 °C | CCOC(=O)c1c(Cn2cnnc2)nc2cc(OC)c(OC)cc2c1-c1ccc(OC)c(OC)c1
61 | 129 to 130 °C | CS(=O)(=O)c1ccc(-c2cc(/C=C\CCO[N+](=O)[O-])nn2C2CCCCC2)cc1
62 | 110 to 114 °C | C[Si](C)(C)c1cc(Cl)sc1C(=O)NCCO
63 | 93 to 95 °C | C[C@@H]1[C@H](c2ccccc2)OC(=O)N1C(=O)CCC(F)(F)F
64 | 114 to 115 °C | O=C(O)C=Cc1cccc(CCc2nc(-c3ccccc3)c(-c3ccccc3)o2)c1
65 | 136 to 137 °C | CC(=O)Oc1cc(C(C)C)ccc1C1(OC(C)=O)C(=O)c2ccccc2C1=O
66 | 207 to 209 °C | O=C1COc2cc(SCc3ccc(O)cc3)ccc2N1
67 | 120 to 122 °C | CN(C)C=CC(=O)c1cccc(N(C)C(=O)C2CC2)c1
68 | > 250 °C | Clc1ccc2c(NCC=CCNc3ccnc4cc(Cl)ccc34)ccnc2c1
69 | 38 to 40 °C | CCCCCCCCCCCCCCCCCc1nc(C(C)N)c[nH]1 (configuration not stated)
70 | 53 to 54 °C | O=Cc1cnccc1Cl
71 | 152 to 154 °C | C=Cc1ccc(Nc2nc(Cl)nc(Cl)n2)cc1
72 | 70 to 72 °C | c1ccc(CNc2cc(N3CCCC3)nc(N3CCCC3)n2)cc1
73 | 79 °C | CCCCCCCCCCCCCCN(C)c1ccc(N)cc1C(=O)O
74 | 177 °C | O=C1O[C@@H](Cn2ccnn2)CN1c1ccc(-c2ccc(CO)nc2)c(F)c1
75 | 52 to 53 °C | COc1c(C)cccc1Oc1ccccc1

Row | melting point | SMILES
76 | 59 to 61.5 °C | COC(=O)c1cc(Br)ccc1O
77 | 109 to 111 °C | O=C1CCC2(CCCc3ccccc32)CC1
78 | 175 to 176 °C | NC(CN1CCC(=C2c3ccccc3C=Cc3ccccc32)CC1)C(=O)NCC(=O)O (configuration not stated)
79 | 240 °C | CCCc1nc(CO)c(C(=O)O)n1Cc1cc2c(cc1Cl)OCO2
80 | 59 to 61 °C | CCOC(=O)c1c(C)nc2cc(C)ccn12
81 | 185 to 187 °C | COc1cc(-c2n[nH]c3c2Cc2ccccc2-3)cc(OC)c1OC
82 | 91 °C | CCCCSc1nnc(-c2ccc(N)cc2)s1
83 | 129 to 130 °C | CCOC(=O)c1[nH]nnc1Nc1ccccc1
84 | 121 to 122 °C | COc1ccc(C2(O)CCN(CC3CN(c4ccccc4)C(=O)O3)CC2)cc1 (configuration not stated)
85 | 110 to 113 °C | Cc1nc(N)ccc1-c1ccccc1
86 | 278 to 280 °C | Cc1cc(COc2cccc3c2CN(C2CCC(=O)NC2=O)C3=O)on1 (configuration not stated)
87 | 176 °C | O=C(O)C1c2ccccc2COc2ccc(F)cc21 (configuration not stated)
88 | 132 to 134 °C | CC(=O)N(C(C)=O)c1c(C#N)cnn1-c1c(F)cc(F)c(F)c1F
89 | 205 °C | Cc1nc(NCCc2ccc(OCc3nn[nH]n3)cc2)c2cc(C)sc2n1
90 | 156 to 157 °C | CCOc1ccc(C2=NNC(=O)[C@H]3CCCC[C@@H]23)cc1OCC (relative stereo)
91 | 177 to 178 °C | Cc1noc(C)c1C(=O)Nc1ccc(-n2ccc(C(F)(F)F)n2)cc1
92 | 157 to 161 °C | CC(C)(C)OC(=O)Nc1cc(N2CCC(OC3CCCCO3)CC2)c(-c2ccc(F)cc2)cc1N (racemic)
93 | 129 to 130 °C | O=C(NCCc1ccc(O)c(O)c1)OCc1ccccc1
94 | 108 to 110 °C | ICCCCCCOc1ccc(C2=C(c3ccccc3)CCCc3cc(OC4CCCCO4)ccc32)cc1 (configuration not stated)
95 | 149 °C | O=c1[nH]c2cc(Cl)ccc2n1CCCO
96 | 192 to 198 °C | COCc1c(S(C)(=O)=O)ccc(C(=O)C2C(=O)CCCC2=O)c1C
97 | 280 to 282 °C | O=C(Nc1cccc(-c2ccnc3c(C(=O)c4cccs4)cnn23)c1)c1cnc[nH]1
98 | 263 to 265 °C | COc1cccc2c(Nc3ccccc3C)c(C(=O)CCC(=O)O)cnc12
99 | 154 °C | CCCCCCOC(C)c1ccc(-c2ccc(C(=O)O)cc2)cc1 (single isomer, unassigned; (+))

Row | SMILES | melting point
100 | CN1CCN(c2ccc3nc(N)c(C#N)c(O)c3c2)CC1 | 156 °C
101 | CCOC(=O)c1nnc2n1-c1sc(CC)cc1C(c1ccccc1Cl)=NC2 | 138 to 140 °C
102 | CC(C)(CS(C)(=O)=O)NC(=O)c1c(NC(=O)c2cc(C(F)(F)F)nn2-c2ncccc2Cl)c(Cl)cc2cn[nH]c12 | 173 to 176 °C

Reference: a melting point compilation (Tetko et al.; mined from patent text by program, amines drawn as free bases though some values may be those of a salt)
